In patent US9688651B2, “Geranyl geranyl acetone analogs and uses thereof” (NYKEN Holding B.V., priority 2012, dated 2017):

Assays:
[1] = tested on: glucose-responsive protein 78 (Grp78); assay: Grp78 mRNA (qPCR, HSF1-independent) in HL-1 cardiomyocytes; assay type: cell-based, mouse; design: key to HSP boosting HL-1 cardiomyocytes mRNA (qPCR) Grp78 Not HSF1: 0 = no induction HSP levels; + = 2-10-fold induction; ++ = 10-30-fold induction; +++ = > 30-fold induction; details: for upregulation of Grp78 mRNA: HL-1, mild heat shock, 10 μM, 6 hours; for HSP boosting HL-1 cardiomyocytes mRNA (qPCR) Grp78 Not HSF1: mild heat shock, then compound 10 μM for 6 hours
Procedure: (§1) HL-1 cardiomyocytes were subjected to a mild heat shock of 44° C. for 10 minutes. After a recovery of 10 minutes (37 degrees 5% CO2), compounds were added in a final concentration of 10 μM (dissolved in DMSO, final concentration 0.1%). To control myocytes, 0.1% DMSO was added. After six hours the cells were lysed in RIPA buffer and used for Western blotting as described previously.^3, 10 Compounds were also screened for their ability to upregulate HSP gene expression. Hereto, HL-1 cardiomyocytes were first subjected to a mild heat shock which activates the Heat Shock Factor. After the mild heat shock, compound (10 μM) was added to the medium of HL-1 cardiomyocytes for 6 hours, followed by determination of HSP70, HSP25, HSP90 and HSP40 which are targets of the heat shock factor 1 (HSF1) transcription factor. In addition, we determined mRNA levels of the gene encoding the glucose-responsive protein 78 (Grp78) which is HSF1-independent.

HSP70 [2] = assay: HSP70 protein boosting in HL-1 cardiomyocytes after mild heat shock (Western blot); assay type: cell-based, mouse; details: for induction of mammalian HSP70 protein expression: HL-1, mild heat shock, 10 μM, 6 hours; for HSP boosting HL-1 cardiomyocytes Protein HSP70: mild heat shock 44°C 10 min, then compound 10 μM for 6 hours, Western blot
Procedure: HL-1 atrial myocytes, a cell line derived from adult mouse atria were obtained from Dr. William Claycomb (Louisiana State University, New Orleans, La., USA). The myocytes were maintained in Complete Claycomb Medium (JRH, UK) supplemented with 100 μM norepinephrine stock (consisting of 10 mM norepinephrine (Sigma, The Netherlands) dissolved in 0.3 mM L-ascorbic acid (Sigma)), 4 mM L-glutamine (Gibco, The Netherlands) and 10% FBS (Sigma). The myocytes were cultured in flasks coated with 0.02% gelatin (Sigma), in a 5% CO2 atmosphere at 37° C.
HL-1 cardiomyocytes were subjected to a mild heat shock of 44° C. for 10 minutes. After a recovery of 10 minutes (37 degrees 5% CO2), compounds were added in a final concentration of 10 μM (dissolved in DMSO, final concentration 0.1%). To control myocytes, 0.1% DMSO was added. After six hours the cells were lysed in RIPA buffer and used for Western blotting as described previously.^3, 10
(§2) Western-blot analysis was performed as described previously^3, 10. Equal amount of protein in SDS-PAGE sample buffer was sonicated before separation on 10% PAA-SDS gels. After transfer to nitrocellulose membranes (Stratagene, The Netherlands), membranes were incubated with primary antibodies against HSP25 (Stressgen, The Netherlands, SPA-801, 1:1000), HSP27 (Stressgen, SPA-800, 1:1000), HSP70 (Stressgen, SPA-810, 1:1000), GAPDH (Affinity Reagents, The Netherlands) or PARP (Santa Cruz, The Netherlands, sc-7150, 1:500). Horseradish peroxidase-conjugated anti-mouse or anti-rabbit (Santa-Cruz Biotechnology, The Netherlands) was used as secondary antibody. Signals were detected by the ECL-detection method (Amersham, The Netherlands) and quantified by densitometry using GeneTools software from Syngene (The Netherlands).
Compounds were also screened for HSP70 boosting effects. Hereto, HL-1 cardiomyocytes were first subjected to a mild heat shock which activates the Heat Shock Factor. After the mild heat shock, compound (10 μM) was added to the medium of HL-1 cardiomyocytes for 6 hours, followed by determination of the HSP70 amount.

PARP = PARP cleavage in MCF-7 cells (Western blot); assay type: cell-based, human; design: key to Cell Death MCF-7 cancer cells PARP: 0 = no dead cells; + = P < 0.05; ++ = P < 0.01; +++ = P < 0.001; details: MCF-7 lysate, Western blot, 16-20 hours
Procedure: (§3) MCF-7 breast cancer cells were cultured in DMEM supplemented with 10% FCS. Test compounds were added to the medium in a final concentration of […] for 16-20 hours. Ratio death and living cells was determined by using trypan blue staining of death cells. The cell pellets were lysed in RIPA buffer and used for Western blot analysis.
as §2
(§4) Since we observed that some compounds aggravate tachypacing-induced contractile dysfunction, we next investigated if these compounds can induce programmed cell death in a human breast cancer cell-line MCF-7. Hereto, MCF-7 cells were incubated for 16 hours with 10 μM of a test compound after which the number of death and living cells was determined. In total 28 compounds were tested for cell death. […] GGA was used as a control as well as non-treated MCF-7 cells. […] The findings indicate that GGA-like compounds which aggravate heart failure can induce programmed cell death in MCF-7 breast cancer cell-line.

[3] = tested on: MCF-7 breast cancer cells; assay: MCF-7 cell death, ratio death/living cells (trypan blue); assay type: cell-based, human; design: key to Cell Death MCF-7 cancer cells Death/living 100 μM: 0 = no dead cells; + = P < 0.05; ++ = P < 0.01; +++ = P < 0.001; details: 100 μM; 16-20 hours; trypan blue
Procedure: MCF-7 breast cancer cells were cultured in DMEM supplemented with 10% FCS. […] Ratio death and living cells was determined by using trypan blue staining of death cells. The cell pellets were lysed in RIPA buffer and used for Western blot analysis.
as §4, with “Hereto, MCF-7 cells were incubated for 16 hours with 10 μM of a test compound after which the number of death and living cells was determined.” left out

[4] = tested on: HSP70, HSP25, HSP90 and HSP40; assay: Upregulation of HSP gene expression (HSF1 targets) in HL-1 cardiomyocytes; assay type: cell-based, mouse; details: HL-1, mild heat shock, 10 μM, 6 hours
Procedure: as §1

HSP70 [5] = assay: HSP70 Western blot in MCF-7 cells; assay type: cell-based, human; design: key: + = P < 0.05; ++ = P < 0.01; +++ = P < 0.001; details: MCF-7 lysate, 16-20 hours
Procedure: as §3, §2

HSP27 = HSP27 Western blot in MCF-7 cells; assay type: cell-based, human; details: MCF-7 lysate, 16-20 hours
Procedure: as §3, §2

HSP90 = HSP90 mRNA (qPCR) in HL-1 cardiomyocytes after mild heat shock; assay type: cell-based, mouse; details: then compound 10 μM for 6 hours
Procedure: as §1

HSP25 = HSP25 mRNA (qPCR) in HL-1 cardiomyocytes after mild heat shock; assay type: cell-based, mouse; design: key: 0 = no induction HSP levels; + = 2-10-fold induction; ++ = 10-30-fold induction; +++ = > 30-fold induction; details: then compound 10 μM for 6 hours
Procedure: as §1

HSP40 = HSP40 mRNA (qPCR) in HL-1 cardiomyocytes after mild heat shock; assay type: cell-based, mouse; details: then compound 10 μM for 6 hours
Procedure: as §1

HSP70 [6] = assay: HSP70 mRNA (qPCR) in HL-1 cardiomyocytes after mild heat shock; assay type: cell-based, mouse; details: then compound 10 μM for 6 hours
Procedure: as §1

HSP70 [7] = assay: Hsp70 induction in murine proximal tubule (MPT) cells (Western blot); assay type: cell-based; details: 40 μM, 5 hours, outperformed positive control GGA
Procedure: Murine proximal tubule (MPT) cells were isolated and cultured as described previously (Borkan et al. Heat stress ameliorates ATP depletion-induced sublethal injury in mouse proximal tubule cells. Am. J. Physiol. 1997; F347-55).
The MPT cells were exposed to 40 μM of compound for 5 hours, after which the cells were harvested in RIPA buffer followed by Western blotting.
For Western-blot analysis, equal amount of protein in SDS-PAGE sample buffer was separated on 10% PAA-SDS gels. After transfer to nitrocellulose membranes (Stratagene, USA), membranes were incubated with primary antibodies against HSP70 (Enzo C92F3A/StressGen SP810) or beta-actin (Sigma A541). Horseradish peroxidase-conjugated anti-mouse or anti-sheep (Jackson ImmunoRes) was used as secondary antibody. Signals were detected by the ECL-detection method (Amersham).

Row | Structure (SMILES) | upregulation of Grp78 mRNA [1] | HSP boosting HL-1 cardiomyocytes mRNA (qPCR) Grp78 Not HSF1 [1] | induction of mammalian HSP70 protein expression (HSP70 [2]) | Cell Death MCF-7 cancer cells PARP (PARP) | Cell Death MCF-7 cancer cells Death/living 100 μM [3] | induction of HSP gene expression [4] | Cell Death MCF-7 cancer cells HSP 70 (HSP70 [5]) | Cell Death MCF-7 cancer cells HSP 27 (HSP27) | HSP boosting HL-1 cardiomyocytes mRNA (qPCR) HSP 90 (HSP90) | HSP boosting HL-1 cardiomyocytes mRNA (qPCR) HSP 25 (HSP25) | HSP boosting HL-1 cardiomyocytes mRNA (qPCR) HSP 40 (HSP40) | HSP boosting HL-1 cardiomyocytes mRNA (qPCR) HSP 70 (HSP70 [6]) | HSP boosting HL-1 cardiomyocytes Protein HSP70 (HSP70 [2]) | induction of HSP70 expression in renal (MPT) cells (HSP70 [7])
1 | CC(=O)CC(=O)CC/C=C(\C)CCC=C(C)C [Compound 28, (E)-8,12-Dimethyltrideca-7,11-Diene-2,4-Dione] | no upregulation | 0 | potent inducers | 0 | 0 | strong inducers | 0 | ++ (++ = P < 0.01) | + (+ = 2-10-fold induction) | + (+ = 2-10-fold induction) | + (+ = 2-10-fold induction) | + (+ = 2-10-fold induction) | – | –
2 | CC(C)=CCC/C(C)=C/CNC(=O)CCC(=O)O [Compound 46] | no upregulation | 0 | potent inducers | – | – | strong inducers | – | – | ++ (++ = 10-30-fold induction) | ++ (++ = 10-30-fold induction) | + (+ = 2-10-fold induction) | + (+ = 2-10-fold induction) | ++ (++ = 10-30-fold induction) | strong inducers
3 | CC(C)=CCC/C(C)=C/CNS(=O)(=O)C(F)(F)F [Compound 52] | no upregulation | 0 | potent inducers | – | – | strong inducers | – | – | + (+ = 2-10-fold induction) | + (+ = 2-10-fold induction) | + (+ = 2-10-fold induction) | + (+ = 2-10-fold induction) | – | strong inducers
4 | CCOC(=O)C(Cc1ccccc1)C(=O)CC/C=C(\C)CCC=C(C)C (centres unmarked) [Compound 23] | no upregulation | 0 | potent inducers | – | – | strong inducers | – | – | + (+ = 2-10-fold induction) | + (+ = 2-10-fold induction) | + (+ = 2-10-fold induction) | ++ (++ = 10-30-fold induction) | – | –
5 | CC(C)=CCC/C(C)=C/CCc1cc(O)n[nH]1 [Compound 62, (E)-5-(4,8-dimethylnona-3,7-dien-1-yl)-1H-pyrazol-3-ol] | no upregulation | 0 | potent inducers | – | – | strong inducers | – | – | + (+ = 2-10-fold induction) | 0 | + (+ = 2-10-fold induction) | + (+ = 2-10-fold induction) | ++ (++ = 10-30-fold induction) | strong inducers
6 | CC(C)=CCC/C(C)=C/CNS(C)(=O)=O [Compound 51, (E)-N-(3,7-Dimethylocta-2,6-dien-1-yl)methanesulfonamide] | no upregulation | 0 | potent inducers | 0 | 0 | strong inducers | + (+ = P < 0.05) | ++ (++ = P < 0.01) | + (+ = 2-10-fold induction) | + (+ = 2-10-fold induction) | + (+ = 2-10-fold induction) | + (+ = 2-10-fold induction) | – | strong inducers
